Results from publication PMC10412585 (Nature Communications, 2023).

Columns and labels:
Format in all cases: cell-based, human
[1] = test system: NKG2A-/NKG2C- NK cells; test: NK cell activation assay with peptide-pulsed K562/HLA-E cells, NKG2A-/NKG2C- internal control; settings: K562/HLA-E target cells, 300 µM peptide, flow cytometry
Procedure: We hypothesized that our predicted proteome-derived peptides could affect NK cell activation through interactions with CD94/NKG2A and CD94/NKG2C. To investigate, we performed cell-based activation assays on primary NK cells (Fig. 4A). NK cells were co-incubated with peptide-pulsed HLA-E-expressing K562 cells, as described previously. The parental K562 human myelogenous leukemia cell line is a typical target to measure NK cell cytotoxicity and activation, allowing for assessment of both NKG2A-mediated inhibition and NKG2C-mediated activation. A side-by-side comparison of the HLA-E expression levels of K562/HLA-E and RMA-S/HLA-E cell lines is shown in Supplemental Fig. 11. All peptides which bound and stabilized HLA-E in the cell-based stability experiment (Fig. 3) were analyzed for their effects on NKG2A^+/NKG2C^- or NKG2A^-/NKG2C^+ NK cell activity, as measured by their ability to induce NK cell degranulation as well as IFN-γ, TNF and CCL3 production, in comparison to class I MHC-derived positive control peptides […] and […], and negative control peptide […] […]
All analyses of human data were carried out in compliance with the relevant ethical regulations. […] Samples were analyzed by flow cytometry on an LSR Fortessa (BD Biosciences). Inhibition of NKG2A^+ NK cells and activation of NKG2C^+ NK cells was assessed by gating on the respective single-positive populations (Supplemental Fig. 14). […]

[2] = test system: HLA-E; test: HLA-E surface stabilization assay with RMA-S/HLA-E cells; settings: peptide 3-300 µM (Fig. 3: 30 µM) in OptiMEM, 16 h, 37 °C, anti-HLA-E 3D12, flow cytometry, n = 4 replicate experiments
Procedure: To probe top-predicted proteome-derived peptides (Tables 2 and 3) for HLA-E binding, we assessed their ability to stabilize surface-expressed HLA-E on RMA-S/HLA-E cells, a TAP-deficient mouse cell line engineered to express HLA-E and human β2M (Fig. 3 and Supplemental Fig. 8)[47].
Fig. 3 Peptide stabilization of HLA-E surface expression. Assessment of peptide-HLA-E binding via HLA-E surface stabilization assay with RMA-S/HLA-E cells incubated with 30 μM peptide. HLA-E expression is detected with an anti-HLA-E antibody. Measurements from n = 4 replicate experiments are shown, with solid black lines indicating mean values. […] Source data are provided as a Source Data file.
RMA-S/HLA-E cells were incubated with serial dilutions of peptides (3–300 µM, Genscript) in OptiMEM (ThermoFisher) for 16 h at 37 °C. Cells were washed with PBS, stained for HLA-E (Clone 3D12, Biolegend, 1:200 dilution) for 15 min at room temperature and analyzed by flow cytometry (analysis in FlowJo version 10). Peptide UBAC2_275-279 was ordered as a 5mer peptide (WNRLF) given the similarity with other WN peptides and hypothesis of a truncated peptide binding in the HLA-E groove. […] Measurements from replicate experiments are plotted in Fig. 3 and Supplemental Fig. 8.

[3] = test system: NKG2A+/NKG2C- NK cells; test: NK cell activation assay with peptide-pulsed K562/HLA-E cells, NKG2A+/NKG2C- NK cells; settings: K562/HLA-E target cells, 300 µM peptide ([…] µM BFAR263-271), E:T 2:1, 6 h; degranulation (CD107a), IFN-γ, TNF, CCL3; flow cytometry
Procedure: (§1) We hypothesized that our predicted proteome-derived peptides could affect NK cell activation through interactions with CD94/NKG2A and CD94/NKG2C. To investigate, we performed cell-based activation assays on primary NK cells (Fig. 4A). NK cells were co-incubated with peptide-pulsed HLA-E-expressing K562 cells, as described previously. The parental K562 human myelogenous leukemia cell line is a typical target to measure NK cell cytotoxicity and activation, allowing for assessment of both NKG2A-mediated inhibition and NKG2C-mediated activation. […] NKG2A^-/NKG2C^- NK cells served as internal control as these should be unaffected by peptide-HLA-E complexes (Supplemental Fig. 12).
(§2) Fig. 4 NK cell stimulation assays. Assessment of effects of peptides on NK cell activity through incubation of NK cells, peptides, and (A) K562/HLA-E or (B) RMA-S/HLA-E target cells. […] Replicates for individual peptides are from different donors, with solid black lines indicating mean values. […] Representative gating for NKG2A^+/NKG2C^- and NKG2A^-/NKG2C^+ NK cells is shown in Supplemental Fig. 14. Source data are provided as a Source Data file.
(§3) All analyses of human data were carried out in compliance with the relevant ethical regulations. Healthy blood donors gave informed consent at DRK Blutspendedienst Nord-Ost, Dresden, Germany, and buffy coats were obtained as approved by Charité ethics committee (EA4/059/17). PBMCs were isolated from human CMV-seropositive buffy coats by density centrifugation over Ficoll Paque Plus (GE Healthcare) and screened for the presence of NKG2C^+ NK cell expansions by flow cytometry to have sufficient frequencies of single-positive cells for parallel assessment of activation and inhibition via HLA-E[47]. Total NK cells from donors with NKG2C^+ expansions (>10% NKG2A^-/NKG2C^+ NK cells) were enriched with CD56 microbeads (Miltenyi Biotec) and cryopreserved in FBS with 10% v/v DMSO. After thawing, NK cells were washed with complete medium, stained with antibodies and Fixable Viability Dye eFluor 780 (Thermo Fisher) for 15 min at 4 °C in PBS, sorted as viable CD56^+ CD3^− cells, and rested in complete media overnight. […] Brefeldin A and Monensin (BD Biosciences) were added after a 1 h culture period. After an additional 5 h, the stimulation was stopped by centrifugation at 4 °C. Cells underwent surface staining, followed by fixation and intracellular staining using Inside Stain Kit (Miltenyi Biotec). Samples were analyzed by flow cytometry on an LSR Fortessa (BD Biosciences). Inhibition of NKG2A^+ NK cells and activation of NKG2C^+ NK cells was assessed by gating on the respective single-positive populations (Supplemental Fig. 14). Antibodies are listed in Supplemental Table 1: anti-human CD56 PE/Dazzle 594 (1:200 dilution), CD3 APC-eFluor 780 (1:50 dilution), anti-human CD159a (NKG2A) Biotin REAfinity (1:50 dilution), anti-human CD159c (NKG2C) PE REAfinity (1:100 dilution), anti-human CD107a (LAMP-1) Alexa Fluor 488 (1:400 dilution), anti-human IFN-γ PE-Vio 770 REAfinity (1:50 dilution), anti-human TNF-α Brilliant Violet 605 (1:50 dilution), anti-human CCL3 (MIP-1α) REAfinity (1:25 dilution).

[4] = test system: NKG2A-/NKG2C+ NK cells; test: NK cell activation assay with peptide-pulsed K562/HLA-E cells, NKG2A-/NKG2C+ NK cells; settings: K562/HLA-E target cells, 300 µM peptide ([…] µM BFAR263-271), E:T 2:1, 6 h; degranulation (CD107a), IFN-γ, TNF, CCL3; flow cytometry
Procedure: as §1, §2, §3

SAPLKTRFL [UL120_71-79, AD169, divergent UL120 peptide of CMV strain AD169]
effect on activation of internal NKG2A-/NKG2C- control NK cells [1]: negatively affect activation of all subsets
stabilization of HLA-E surface expression [2]: weaker but detectable stabilization
inhibitory effects on NKG2A+ cells [3]: negatively affect activation of all subsets
activating effects on NKG2C+ cells [4]: negatively affect activation of all subsets
